Source: patent publication US4847271A, “Antihypercholesterolemic β-lactones” (Merck & Co., Inc., priority 1987, dated 1989)

Biological target: T1, HMG-CoA synthase (Rattus norvegicus, UniProt P17425)
T1 construct: The livers from male Charles River CD rats (225-350 g) were homogenized in 0.25 M sucrose; from tissue; host or cells: rat liver (male Charles River CD rats), 100,000×g supernatant, ammonium sulfate precipitate, DEAE-52 fraction
T1 sequence (P17425 1-520): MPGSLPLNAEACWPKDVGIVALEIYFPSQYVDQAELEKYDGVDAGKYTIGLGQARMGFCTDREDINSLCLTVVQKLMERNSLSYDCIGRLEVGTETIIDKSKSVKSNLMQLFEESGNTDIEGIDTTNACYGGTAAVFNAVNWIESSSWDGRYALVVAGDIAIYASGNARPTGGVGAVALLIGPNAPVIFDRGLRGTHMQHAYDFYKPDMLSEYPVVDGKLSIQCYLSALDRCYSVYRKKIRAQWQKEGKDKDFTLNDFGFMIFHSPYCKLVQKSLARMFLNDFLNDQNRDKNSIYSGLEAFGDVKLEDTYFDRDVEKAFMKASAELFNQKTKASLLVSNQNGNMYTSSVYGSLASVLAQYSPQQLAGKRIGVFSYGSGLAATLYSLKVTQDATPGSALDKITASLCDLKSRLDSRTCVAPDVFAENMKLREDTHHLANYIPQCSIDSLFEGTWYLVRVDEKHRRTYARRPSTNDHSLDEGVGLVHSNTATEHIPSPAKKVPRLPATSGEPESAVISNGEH
Experiment: HMG-CoA synthase inhibition assay (in vitro, enzyme partially purified from rat liver)
Type: biochemical
Settings: HMG-CoA synthase activity; 5 min preincubation, 30°; read-out: IC50
Description: The intrinsic HMG-CoA synthase inhibition activity of the compounds of this invention is measured by the standard in vitro protocol described below:
The livers from male Charles River CD rats (225-350 g) were homogenized in 0.25 M sucrose which was adjusted with phenylmethylsulfonylfluoride (PMSF) and N-p-tosyl-1-lysine chloromethyl ketone (TLCK) so that the final concentration of each was 50 and 25 μg/ml, respectively. The homogenate was centrifuged at 15,000×g for 20 minutes, the supernatant filtered through a fine nylon screen to remove most of the fat layer and recentrifuged at 100,000×g for 1 hour. This supernatant was removed and 1 M potassium phosphate, dithiothreitol (DTT) and ethylene glycolbis(β-aminoethyl ether)-N,N,N',N'-tetraacetic acid (EGTA) added to give a final concentration of 0.1 M (pH 7.2), 0.5 mM and 0.1 mM, respectively. Solid ammonium sulfate was added to 50% saturation to the protein solution, it was centrifuged at 15,000×g and the […]. This precipitated protein could be stored at -70° for at least one month with very little loss of activity. The ammonium sulfate rrecipitate was dissolved in an minimal amount of 0.06 M potassium phosphate buffer (pH 7.2) containing 0.5 mM dithiothreitol and 0.1 mM EGTA (referred to as 0.06 M phosphate buffer) and dialyzed overnight against 2 liters of the same buffer to remove the ammonium sulfate and to inactivate HMG-CoA lyase [Clinkenbeard, et al., J. Biol. Chem 250, 3108-3116(1975)].
The dialyzed extract was added to a column of DEAE-52 (Whatman) which had been equilibrated with 0.06 M phosphate buffer (10 mg of protein to 1 ml bed volume of the resin). The DEAE-cellulose was eluted with 0.06 M Phosphate buffer until the optical density at 280 nm was essentially zero. This fraction contained the β-ketoacetyl-CoA thiolase activity. The HMG-CoA synthase was eluted from the column with 0.1 M phosphate buffer (pH 7.2) containing 0.5 mM DTT and 0.1 mM EGTA, and was virtually free of all thiolase activity. The protein was precipitated by the addition of ammonium sulfate to give 50% saturation. This solution was stirred for 10 minutes at 4° C. and the precipitate collected by centrifugation at 15,000 rpm for 10 minutes. The supernatant was discarded and the precipitate dissolved in a minimum of 0.06 M phosphate buffer, pH 7.2 (about 10 ml) and the enzyme stored at -80° C.
HMG-CoA Synthase Inhibition Assay
Enzyme protein (ca. 24 μg) was added to a solution containing 117 mM Tris-HCl (pH 8.0), 11.7 mM MgCl2, 1.17 mM Ethylenediaminetetraacetic acid (EDTA), 0.58 mM dithiothreitol, and the indicated concentrations of the test compound (added as a 2 μg/ml solution in dimethylsulfoxide). The incubation took place in a volume of 0.085 ml at 30° in a shaking water bath. After 5 minutes, 15 μl of a solution containing acetoacetyl-CoA and 0.1 μCi of 1-[^14 C]-acetyl-CoA was added to give a final concentrations of 0.1 and 0.4 mM, respectively. The incubation was continued for 10 more minutes and the reaction stopped by the addition of 50 μl of the assay mixture to 0.2 ml of 6N HCl in a glass scintillation vial. The vial was heated for 1 hour at 120° after which time 0.2 ml more of 6N HCl was again added to each vial and the heating continued for another hour. Following this, 1.0 ml of 0.9% saline was added to each vial and finally 10 ml of scintillation liquid. Radioactivity was determined in a Packard Tri-Carb liquid scintillation counter. Percent inhibition is calculated by the formula: [formula] IC50 values were determined by plotting the log of the concentration of the test compound verses the percentage inhibition and fitting a straight line to the resulting data by using the least squares method.

| IC50 [nM] | Compound |
| --- | --- |
| 120 | CC(=CC(=O)Sc1ccccn1)C=C(C)CC(C)CCCCC1OC(=O)C1CO (stereo not drawn) [2-pyridyl 11-(3-hydroxymethyl-4-oxo-2-oxetano)-3,5,7-trimethyl-2,4-undecadienthioate] |
| 200 | CCCCCCNC(=O)C=C(C)C=C(C)CC(C)CCCCC1OC(=O)C1CO (stereo not drawn) [Example 7, N-n-hexyl 11-(3-hydroxymethyl-4-oxo-2-oxetano)-3,5,7-trimethyl-2,4-undecadienamide] |
| < 100 | CC(=CC(N)=O)C=C(C)CC(C)CCCCC1OC(=O)C1CO (stereo not drawn) [Example 8, 11-(3-hydroxymethyl-4-oxo-2-oxetano)-3,5,7-trimethyl-2,4-undecadienamide] |
| 100 | CC(=CC(=O)Nc1ccc(Br)cc1)C=C(C)CC(C)CCCCC1OC(=O)C1CO (stereo not drawn) [Example 9, N--(4-bromophenyl)-11-(3-hydroxymethyl-4-oxo-2-oxetano)-3,5,7-trimethyl-2,4-undecadienamide] |
| < 100 | CC(=CC(=O)NCCO)C=C(C)CC(C)CCCCC1OC(=O)C1CO (stereo not drawn) [Example 10, N--(2-hydroxyethyl)-11-(3-hydroxymethyl-4-oxo-2-oxetano)-3,5,7-trimethyl-2,4-undecadienamide] |
| 270 | COCC1C(=O)OC1CCCCC(C)CC(C)=CC(C)=CC(=O)OC (stereo not drawn) [Example 11, methyl 11-(3-methoxymethyl-4-oxo-2-oxetano)-3,5,7-trimethyl-2,4-undecadienoate] |
| 700 | CCOCC1C(=O)OC1CCCCC(C)CC(C)=CC(C)=CC(=O)OC (stereo not drawn) [Example 12, methyl 11-(3-ethoxymethyl-4-oxo-2-oxetano)-3,5,7-trimethvl-2.4-undecadienoate] |
| 1000 | C=CCOCC1C(=O)OC1CCCCC(C)CC(C)=CC(C)=CC(=O)OC (stereo not drawn) [Example 13, methyl 11-[3-(2-propenyloxymethyl)-4-oxo-2-oxetano]-3,5,7-trimethyl-2,4-undecadienoate] |
| 110 | COCC1C(=O)OC1CCCCC(C)CC(C)=CC(C)=CC(=O)O (stereo not drawn) [Example 14, 11-(3-methoxymethyl-4-oxo-2-oxetano)-3,5,7-trimethyl-2,4-undecadienoic acid] |
| 10000 | COc1ccc(C(OCC2C(=O)OC2CCCCC(C)CC(C)=CC(C)=CC(=O)O)(c2ccccc2)c2ccccc2)cc1 (stereo not drawn) [Example 15, 11-(3-anisyldiphenylmethyloxymethyl-4-oxo-2-oxetano)-3,5,7-trimethyl-2,4-undecadienoic acid] |
| 240 | COC(=O)C=C(C)C=C(C)CC(C)CCCCC1OC(=O)C1COS(C)(=O)=O (stereo not drawn) [Example 16, methyl 11-(3-methanesulfonyloxymethyl-4-oxo-2-oxetano)-3,5,7-trimethyl-2,4-undecadienoate] |
| 140 | COC(=O)C=C(C)C=C(C)CC(C)CCCCC1OC(=O)C1COC=O (stereo not drawn) [Example 17, methyl 11-(3-formyloxymethyl-4-oxo-2-oxetano)-3,5,7-trimethyl-2,4-undecadienoate] |
| 500 | CC(=CC(=O)OC(C)(C)C)C=C(C)CC(C)CCCCC1OC(=O)C1CO (stereo not drawn) [Example 20, tert-butyl 11-(3-hydroxymethyl-4-oxo-2-oxetano)-3,5,7-trimethyl-2,4-undecadienoate] |
| 2400 | COC(=O)C=C(C)C=C(C)CC(C)CCCCC1OC(=O)C1COC(=O)CCC(=O)O (stereo not drawn) [methyl 11-[3-(3-carboxypropionyloxymethyl)-4-oxo-2-oxetano]-3,5,7-trimethyl-2,4-undecadienoate] |

Same assay, conditions: at 4.0 μg/ml

| percent inhibition [%] | Compound |
| --- | --- |
| 86.2 | methyl 11-[3-(N-methylurethanylmethyl)-4-oxo-2-oxetano]-3,5,7-trimethyl-2,4-undecadienoate [Example 19] |

Same assay, conditions: at 40 μg/ml

| percent inhibition [%] | Compound |
| --- | --- |
| 80.6 | methyl 11-(3-urethanylmethyl)-4-oxo-2-oxetano)-3,5,7-trimethyl-2,4-undecadienoate |

Same assay, conditions: at 10^-5 M (IC25); read-out: percent inhibition

| inhibition at 10 µM [%] | Compound |
| --- | --- |
| 25.4 | CCC(C)C(=O)OCC1C(=O)OC1CCCCC(C)CC(C)=CC(C)=CC(=O)OC (stereo not drawn) [Example 18, methyl 11-[3-(2-methylbutyryloxymethyl)-4-oxo-2-oxetano]-3,5,7-trimethyl-2,4-undecadienoate] |

Same assay, conditions: printed as (40 μg/ml) without footnote; read-out: IC50 (value printed in brackets as a concentration) (converted)

| IC50 [nM] | Compound |
| --- | --- |
| 79300 | COCC1C(=O)OC1CCCCC(C)CC(C)=CC(C)=CC(=O)OC(c1ccccc1)c1ccccc1 (stereo not drawn) [Example 14 Step B, Diphenylmethyl 11-(3-methoxymethyl-4-oxo-2-oxetano)-3,5,7-trimethyl-2,4-undecadienoate] |
